{
  "source": "patent US20240376148A1",
  "about": "“MEDICAMENT FOR INHIBITING DIETARY OBESITY AND POLYPEPTIDE USED THEREFOR” (INSTITUTE OF ZOOLOGY, CHINESE ACADEMY OF SCIENCES, priority 2022, published 2024)",
  "key": {"UGN": {"test_system": "UGN", "assay": "Mice ileum immunofluorescence", "format": "in vivo", "procedure": "After the ileum was taken out, it was embedded with OCT and sliced by freezing microtome. Immunofluorescence brief steps: after the sections were washed with PBS for 3 times, 4% paraformaldehyde was added, fixed at room temperature for 10 min, and then washed with PBS for 3 times; 0.5% Triton X-100 was added, permeation at room temperature for 5 min, then washed with PBS 3 times; cell blocking solution was added and blocked at room temperature for 30 min; primary anti-UGN specific antibody (1:200) was added, 4° C. overnight and washed 3 times with PBST; the secondary antibody (1:500) was added, reacted at room temperature for 2 h, washed twice with PBST and washed once with PBS. The cells were stained with […] for additional 10 minutes at 37° C. Cleaned and sealed. Microscopic observation was recorded."}, "[1]": {"assay": "SPF mice feeding experiment (high-fat diet)", "format": "in vivo, C57/B16J mice", "procedure": "C57/B16J mice were used in the SPF mice experiment. At the beginning of the experiment, C57/B16J mice were 4 weeks old, and each weighed 15±1 g. They were raised in a room with suitable temperature and humidity control, and the light/dark cycle was 12 hours, free diet and drinking water, and fed with standard laboratory feed (also known as growth and reproduction feed, item number SPFSLFZ003, product of SPF (Beijing) Experimental Animal Technology Co., Ltd.). After one week of adaptation, they were randomly assigned to a cage, 4-6 mice per cage.\nA total of 12 treatments were set up, each with 2 cages of C57/B16J mice, and each treatment was subjected to different feeding treatments, specifically as follows:\nNC group (i.e. normal diet group): fed with standard laboratory feed (also known as growth and reproduction feed, SPFSLFZ003), free diet and drinking water, each intragastrically administrated with 0.2 ml solvent daily for 8 weeks.\nHFD group (i.e. high-fat diet group): fed with high-fat diet, the high-fat diet used was rodent feed (containing 60% fat, D12492, formula reference Le Roy, T., et al. Dysosmobacter welbionis is a newly isolated human commensal bacterium preventing diet-induced obesity and metabolic disorders in mice. Gut (2021).), free diet and drinking water, each intragastrically administrated with 0.2 ml solvent daily for 8 weeks.\nD1 group (i.e. high-fat diet+D1 intragastric administration group): fed with high-fat diet, free diet and drinking water. Intragastrically administrated with synthetic D1, 0.75 mg-3 mg/Kg body weight, 0.2 ml, once/day for 8 weeks.\nD2 group (i.e. high-fat diet+D2 intragastric administration group): fed with high-fat diet, free diet and drinking water. Intragastrically administrated with synthetic D2, 0.75 mg-3 mg/Kg body weight, 0.2 ml, once/day for 8 weeks.\nD3 group (i.e. high-fat diet+D3 intragastric administration group): fed with high-fat diet, free diet and drinking water. Intragastrically administrated with synthetic D3, 0.75 mg-3 mg/Kg body weight, 0.2 ml, once/day for 8 weeks.\nD4 group (i.e. high-fat diet+D4 intragastric administration group): fed with high-fat diet, free diet and drinking water. Intragastrically administrated with synthetic D4, 0.75 mg-3 mg/Kg body weight, 0.2 ml, once/day for 8 weeks.\nD5 group (i.e. high-fat diet+D5 intragastric administration group): fed with high-fat diet, free diet and drinking water. Intragastrically administrated with synthetic D5, 0.75 mg-3 mg/Kg body weight, 0.2 ml, once/day for 8 weeks.\nD6 group (i.e. high-fat diet+D6 intragastric administration group): fed with high-fat diet, free diet and drinking water. Intragastrically administrated with synthetic D6, 0.75 mg-3 mg/Kg body weight, 0.2 ml, once/day for 8 weeks.\nD7 group (i.e. high-fat diet+D7 intragastric administration group): fed with high-fat diet, free diet and drinking water. Intragastrically administrated with synthetic D7, 0.75 mg-3 mg/Kg body weight, 0.2 ml, once/day for 8 weeks.\nD8 group (i.e. high-fat diet+D8 intragastric administration group): fed with high-fat diet, free diet and drinking water. Intragastrically administrated with synthetic D8, 0.75 mg-3 mg/Kg body weight, 0.2 ml, once/day for 8 weeks.\nD9 group (i.e. high-fat diet+D9 intragastric administration group): fed with high-fat diet, free diet and drinking water. Intragastrically administrated with synthetic D9, 0.75 mg-3 mg/Kg body weight, 0.2 ml, once/day for 8 weeks.\nD10 group (i.e. high-fat diet+D10 intragastric administration group): fed with high-fat diet, free diet and drinking water. Intragastrically administrated with synthetic D10, 0.75 mg-3 mg/Kg body weight, 0.2 ml, once/day for 8 weeks.\nThe feed intake was tracked every week. After the experiment, the mice were weighed and photographs were taken to compare the body size of the mice. After that, the mice were killed by cervical dislocation. […]"}, "[2]": {"assay": "Macaque experiment (high-fat diet)", "format": "in vivo", "settings": "rhesus monkeys, high-fat diet (45 kcal % fat), intragastric 0.5 mg-1 mg/Kg once/day, after 6 weeks", "procedure": "Rhesus monkeys were used in the macaque experiment. 9 in total, […] at the beginning of the experiment, and each weighed 2.5±0.5 Kg. They were raised individually in the same environment, in a room with suitable temperature and humidity control, and the light/dark cycle was 12 hours, free diet and drinking water, and fed with standard laboratory feed (#2150230401). After 7 days of adaptation, they were randomly assigned to 3 groups with 3 animals in each group, and each group was subjected to different feeding treatments, specifically as follows (see figure e of FIG. 7):\nNC group (i.e. normal diet group): fed with standard laboratory feed (#2150230401), free diet and drinking water for 6 weeks.\nHFD group (i.e. high-fat diet group): fed with high-fat diet (45 kcal % fat), free diet and drinking water for 6 weeks.\nD3 group (i.e. high-fat diet+D3 medicine intragastric administration group): fed with high-fat diet (45 kcal % fat), free diet and drinking water for 6 weeks. HD medicines were selected as D3, intragastrically administrated with D3, 0.5 mg-1 mg/Kg body weight, and intragastrically administrated according to 1.7 ml/Kg body weight, once/day.\nFood intake (unit: g/only/week) and body weight were monitored weekly. Fresh excreta of the above animals were collected and stored at −80° C. for further analysis of macaque fecal flora (method as above)."}, "Guca2b": {"test_system": "Guca2b", "assay": "qPCR of Guca2b mRNA in the ileum of rats", "format": "in vivo", "procedure": "qPCR gene expression was carried out using the StepOnePlus real-time fluorescent quantitative PCR system. Three technical replicates were performed for each sample, and the identity and purity of the amplified product were checked by analyzing the melting curve at the end of the amplification. Gene expression results were referenced to the percent expression of each gene normalized to glyceraldehyde-3-phosphate dehydrogenase (GAPDH)."}},
  "data": [
    {"sequence": "RTRYCRTGR [D3]", "values": [
      {"measurement": "fluorescence intensity of UGN in ileal cells", "setting": "UGN", "value": "significantly increased"},
      {"measurement": "body size compared with the HFD group", "setting": "[1]; 8 weeks", "value": "smaller than that of the HFD group"},
      {"measurement": "subcutaneous and visceral fat weight (inguinal subcutaneous, epididymis, perirenal) vs HFD group", "setting": "[1]; 8 weeks", "value": "significantly lower than that of the HFD group"},
      {"measurement": "weekly feed intake vs control HFD group", "setting": "[1]; after 3-4 weeks", "value": "significant difference in feed intake"},
      {"measurement": "body weight decrease compared with the HFD group", "setting": "[1]; intragastric 0.75 mg-3 mg/Kg once/day, after 8 weeks", "value": 12.06, "unit": "%"},
      {"measurement": "growth rate of body weight", "setting": "[2]", "value": "decreased significantly"},
      {"measurement": "mRNA level of UGN in the ileum", "setting": "Guca2b", "value": "increased significantly"}
    ]}
  ]
}
